Measured values as given in patent publication US8940742B2, “Heterocyclic compounds and uses thereof” (Infinity Pharmaceuticals, Inc., priority 2012, dated 2015).
pIC50: −log10 of the molar value.

Assays:
PI3K δ = molecular target: T1, PI3K δ (Homo sapiens, UniProt O00329); assay: PI3-Kinase Promega ADP-Glo Max assay; assay type: biochemical; conditions: 20 nM kinase, 3 mM ATP, 500 uM diC8-PtdInsP
T1 construct: purchased Millipore
Outline: (§1)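 Human class I PI3K (20 nM α or δ, 40 nM β) pre-incubated 15 min with compound in HEPES pH 7.4 buffer with MgCl2, then reacted 2 h at room temperature with 3 mM ATP and 500 uM diC8-PtdInsP. ADP measured by ADP-Glo Max luminescence; % inhibition fitted to 4-parameter logistic for IC50.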

PI3K α = molecular target: T2, PI3K α (Homo sapiens, UniProt P42336); assay: PI3-Kinase Promega ADP-Glo Max assay; assay type: biochemical; conditions: 20 nM kinase, 3 mM ATP, 500 uM diC8-PtdInsP
T2 construct: purchased Millipore
Outline: as §1

PI3K β = molecular target: T3, PI3K β (Homo sapiens, UniProt P42338); assay: PI3-Kinase Promega ADP-Glo Max assay; assay type: biochemical; conditions: 40 nM kinase, 3 mM ATP, 500 uM diC8-PtdInsP
T3 construct: purchased Millipore
T3 sequence (P42338 whole entry): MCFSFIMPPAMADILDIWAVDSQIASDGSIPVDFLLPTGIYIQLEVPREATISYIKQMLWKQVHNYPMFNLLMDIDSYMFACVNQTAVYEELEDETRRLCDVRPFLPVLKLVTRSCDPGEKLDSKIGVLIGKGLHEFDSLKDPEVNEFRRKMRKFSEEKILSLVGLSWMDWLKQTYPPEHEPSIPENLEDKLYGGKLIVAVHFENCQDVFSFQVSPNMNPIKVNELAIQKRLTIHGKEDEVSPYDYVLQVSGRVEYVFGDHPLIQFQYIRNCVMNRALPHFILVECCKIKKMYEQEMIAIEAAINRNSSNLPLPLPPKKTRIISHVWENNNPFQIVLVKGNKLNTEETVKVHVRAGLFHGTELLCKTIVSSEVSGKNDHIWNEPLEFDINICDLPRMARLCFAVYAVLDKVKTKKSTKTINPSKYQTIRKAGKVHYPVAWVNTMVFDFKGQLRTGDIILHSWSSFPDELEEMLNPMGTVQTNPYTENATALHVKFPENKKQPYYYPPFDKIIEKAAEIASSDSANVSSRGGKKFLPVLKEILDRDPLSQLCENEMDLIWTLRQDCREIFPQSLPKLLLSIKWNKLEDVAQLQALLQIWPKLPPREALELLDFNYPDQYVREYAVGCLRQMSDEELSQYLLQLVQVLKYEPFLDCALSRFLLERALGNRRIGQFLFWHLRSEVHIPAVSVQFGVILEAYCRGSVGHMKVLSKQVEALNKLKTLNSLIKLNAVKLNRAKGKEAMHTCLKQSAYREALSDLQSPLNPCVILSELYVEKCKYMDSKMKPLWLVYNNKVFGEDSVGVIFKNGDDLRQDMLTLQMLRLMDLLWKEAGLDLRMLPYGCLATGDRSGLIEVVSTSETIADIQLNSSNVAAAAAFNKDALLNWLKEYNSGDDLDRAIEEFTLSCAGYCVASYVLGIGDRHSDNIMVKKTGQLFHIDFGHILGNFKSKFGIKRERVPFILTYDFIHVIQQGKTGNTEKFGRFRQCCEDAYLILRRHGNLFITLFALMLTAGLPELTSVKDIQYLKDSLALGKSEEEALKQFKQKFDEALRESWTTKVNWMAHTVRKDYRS
T3 sequence (P27986 whole entry partner): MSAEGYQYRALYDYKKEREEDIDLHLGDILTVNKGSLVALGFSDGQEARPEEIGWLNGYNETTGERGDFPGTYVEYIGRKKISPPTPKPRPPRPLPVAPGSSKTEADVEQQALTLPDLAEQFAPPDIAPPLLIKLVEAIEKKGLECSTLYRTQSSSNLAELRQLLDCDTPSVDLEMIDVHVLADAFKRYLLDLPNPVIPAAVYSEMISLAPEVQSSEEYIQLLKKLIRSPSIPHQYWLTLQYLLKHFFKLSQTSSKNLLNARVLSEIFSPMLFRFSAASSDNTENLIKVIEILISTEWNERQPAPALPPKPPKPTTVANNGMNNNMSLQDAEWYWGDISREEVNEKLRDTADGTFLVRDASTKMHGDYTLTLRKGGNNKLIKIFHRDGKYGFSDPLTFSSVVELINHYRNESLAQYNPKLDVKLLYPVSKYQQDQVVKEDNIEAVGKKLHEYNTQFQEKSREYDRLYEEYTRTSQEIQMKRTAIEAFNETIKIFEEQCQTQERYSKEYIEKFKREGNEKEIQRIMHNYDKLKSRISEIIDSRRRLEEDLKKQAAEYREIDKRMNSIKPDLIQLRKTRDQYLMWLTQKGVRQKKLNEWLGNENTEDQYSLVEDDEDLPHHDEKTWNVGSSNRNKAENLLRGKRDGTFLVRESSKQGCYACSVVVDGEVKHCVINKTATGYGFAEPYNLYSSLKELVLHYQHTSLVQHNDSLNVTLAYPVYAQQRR
Outline: as §1

PI3K γ = molecular target: T4, PI3K γ (Homo sapiens, UniProt P48736); assay: PI3-Kinase Promega ADP-Glo Max assay; assay type: biochemical; conditions: 40 nM kinase, 3 mM ATP, 500 uM diC8-PtdInsP
T4 construct: purchased Millipore
Outline: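 Human class I PI3K reactions ran 2 hours at room temperature, followed by stop solution (40 min) and detection mix (1 hour) before luminescence reading.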

Raw264.7 p110 γ = molecular target: T5, Raw264.7 p110 γ (Mus musculus, UniProt Q9JHG7); assay: Raw264.7 p110 γ cellular assay (phospho-AKT); assay type: cell-based; conditions: serum-starved RAW264.7 cells stimulated with C5a
T5 construct: reduction of phospho-AKT in stimulated RAW 264.7 cells; endogenous in cells; host or cells: RAW264.7 macrophages
T5 sequence (Q9JHG7 whole entry): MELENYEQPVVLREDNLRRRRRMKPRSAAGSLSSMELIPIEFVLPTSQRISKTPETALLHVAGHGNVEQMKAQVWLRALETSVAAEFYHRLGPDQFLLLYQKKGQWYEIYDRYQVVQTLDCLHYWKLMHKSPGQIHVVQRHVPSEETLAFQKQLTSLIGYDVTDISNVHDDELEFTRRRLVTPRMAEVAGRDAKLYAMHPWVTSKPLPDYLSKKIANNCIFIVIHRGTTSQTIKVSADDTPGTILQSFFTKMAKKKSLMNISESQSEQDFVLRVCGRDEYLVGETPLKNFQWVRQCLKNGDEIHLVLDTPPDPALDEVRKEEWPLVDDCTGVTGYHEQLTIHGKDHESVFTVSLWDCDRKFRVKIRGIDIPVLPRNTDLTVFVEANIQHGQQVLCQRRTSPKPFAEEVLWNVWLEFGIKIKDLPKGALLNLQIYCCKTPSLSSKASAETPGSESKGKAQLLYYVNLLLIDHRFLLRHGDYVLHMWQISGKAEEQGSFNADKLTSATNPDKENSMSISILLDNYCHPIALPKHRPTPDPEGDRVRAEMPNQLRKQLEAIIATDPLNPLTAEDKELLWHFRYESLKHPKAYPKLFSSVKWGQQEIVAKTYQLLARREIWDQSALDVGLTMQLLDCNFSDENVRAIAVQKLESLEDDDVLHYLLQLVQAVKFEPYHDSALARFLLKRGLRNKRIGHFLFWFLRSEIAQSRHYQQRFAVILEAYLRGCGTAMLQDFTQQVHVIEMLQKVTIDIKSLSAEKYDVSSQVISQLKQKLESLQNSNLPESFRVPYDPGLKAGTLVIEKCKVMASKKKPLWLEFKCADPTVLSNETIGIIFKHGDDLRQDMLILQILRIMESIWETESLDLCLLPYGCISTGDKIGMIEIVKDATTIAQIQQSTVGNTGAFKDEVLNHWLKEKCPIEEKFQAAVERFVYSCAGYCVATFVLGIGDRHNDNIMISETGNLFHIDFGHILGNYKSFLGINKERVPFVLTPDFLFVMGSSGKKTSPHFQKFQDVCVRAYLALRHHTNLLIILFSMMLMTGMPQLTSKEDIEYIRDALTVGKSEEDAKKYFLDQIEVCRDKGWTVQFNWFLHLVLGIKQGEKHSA
Excerpt: (b) PI3K-γ Selective Assay
Briefly, serum-starved PAW264.7 cells are stimulated with a known GPCR agonist C5a. […] Cells can be treated with test compounds prior to, simultaneously with, or subsequent to the stimulation by C5a. RAW 264.7 cells respond to the complement component fragment C5a through activation of the C5a receptor, and the C5a receptor activates macrophages and induces cell migration.

RAJI p110 δ = RAJI p110 δ (Homo sapiens, UniProt O00329); assay: RAJI p110 δ cellular assay (phospho-AKT);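 further: potency based on lowered phosphorylated AKT in RAJI cells, as a readout of PI3K-δ dependent B-cell receptor signaling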
Sequence of RAJI p110 δ (O00329 whole entry): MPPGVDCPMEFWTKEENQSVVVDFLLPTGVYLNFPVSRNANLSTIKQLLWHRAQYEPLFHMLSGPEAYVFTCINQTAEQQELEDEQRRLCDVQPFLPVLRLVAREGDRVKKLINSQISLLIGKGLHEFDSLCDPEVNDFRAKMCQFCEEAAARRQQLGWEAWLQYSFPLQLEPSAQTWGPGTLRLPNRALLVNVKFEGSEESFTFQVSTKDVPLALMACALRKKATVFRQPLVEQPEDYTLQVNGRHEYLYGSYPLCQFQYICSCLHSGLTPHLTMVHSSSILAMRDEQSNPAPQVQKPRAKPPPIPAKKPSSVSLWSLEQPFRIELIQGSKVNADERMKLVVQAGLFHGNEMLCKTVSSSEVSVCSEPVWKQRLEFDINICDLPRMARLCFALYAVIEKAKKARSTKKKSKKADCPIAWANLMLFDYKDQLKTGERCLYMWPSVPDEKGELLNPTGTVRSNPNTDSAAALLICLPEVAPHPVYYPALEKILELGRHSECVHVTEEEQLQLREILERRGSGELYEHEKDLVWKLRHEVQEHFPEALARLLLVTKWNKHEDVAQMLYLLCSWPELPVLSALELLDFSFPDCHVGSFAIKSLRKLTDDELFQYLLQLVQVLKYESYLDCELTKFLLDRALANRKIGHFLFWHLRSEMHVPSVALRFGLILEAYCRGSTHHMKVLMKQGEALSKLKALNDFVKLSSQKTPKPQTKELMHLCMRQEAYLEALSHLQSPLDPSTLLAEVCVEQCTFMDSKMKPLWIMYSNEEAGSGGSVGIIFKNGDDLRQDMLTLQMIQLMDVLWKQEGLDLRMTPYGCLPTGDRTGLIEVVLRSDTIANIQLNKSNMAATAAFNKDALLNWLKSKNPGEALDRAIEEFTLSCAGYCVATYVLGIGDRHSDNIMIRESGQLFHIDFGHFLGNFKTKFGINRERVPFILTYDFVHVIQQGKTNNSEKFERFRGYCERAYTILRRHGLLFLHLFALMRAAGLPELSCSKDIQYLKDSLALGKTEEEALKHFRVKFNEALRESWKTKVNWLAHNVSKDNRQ
Sequence of RAJI p110 δ (P27986 whole entry partner): as the sequence (P27986 whole entry partner) above
Excerpt: (a) PI3K-δ Selective Assay
Reduction of phospho-AKT is indicative of compounds that may inhibit B-cell proliferation and function in certain diseases.

T1 sequence (O00329 whole entry): as the sequence (O00329 whole entry) above
T1 sequence (P27986 whole entry partner): as the sequence (P27986 whole entry partner) above

| SMILES | pIC50 (PI3K δ) | pIC50 (PI3K α) | pIC50 (PI3K β) | pIC50 (PI3K γ) | pIC50 (Raw264.7 p110 γ) | pIC50 (RAJI p110 δ) |
| --- | --- | --- | --- | --- | --- | --- |
| C[C@H](NC(=O)c1nc(-c2cccc(NS(=O)(=O)N(C)C)c2)cnc1N)c1cc2cccc(Cl)c2c(=O)n1-c1ccccc1 [Compound 99] | 6.00 to 7.00 | 5.00 to 6.00 | 6.00 to 7.00 | > 7.00 | > 7.00 | > 7.00 |
| COc1ccc(-c2cnc(N)c(C(=O)N[C@@H](C)c3cc4cccc(Cl)c4c(=O)n3-c3ccccc3)n2)cc1NS(C)(=O)=O [Compound 101] | 5.00 to 6.00 | 6.00 to 7.00 | 6.00 to 7.00 | > 7.00 | > 7.00 | > 7.00 |
| C[C@H](NC(=O)c1nc(-c2cccc(NS(=O)(=O)C3CC3)c2)cnc1N)c1cc2cccc(Cl)c2c(=O)n1-c1ccccc1 [Compound 102] | 5.00 to 6.00 | 5.00 to 6.00 | 6.00 to 7.00 | > 7.00 | > 7.00 | > 7.00 |
| C[C@H](NC(=O)c1nc(-c2ccc(NS(C)(=O)=O)cc2)cnc1N)c1cc2cccc(Cl)c2c(=O)n1-c1ccccc1 [Compound 103] | < 5.00 | < 5.00 | < 5.00 | 5.00 to 6.00 | 6.00 to 7.00 | 5.00 to 6.00 |
| C[C@H](NC(=O)c1nc(-c2cccc(O)c2)cnc1N)c1cc2cccc(Cl)c2c(=O)n1-c1ccccc1 [Compound 104] | < 5.00 | < 5.00 | 5.00 to 6.00 | 5.00 to 6.00 | 6.00 to 7.00 | 6.00 to 7.00 |
| CC(C)Oc1ccc(-c2cnc(N)c(C(=O)N[C@@H](C)c3cc4cccc(Cl)c4c(=O)n3-c3ccccc3)n2)cc1 [Compound 106] | < 5.00 | < 5.00 | < 5.00 | 5.00 to 6.00 | 6.00 to 7.00 | < 5.00 |
| C[C@H](NC(=O)c1nc(-c2cncc(NS(C)(=O)=O)c2)cnc1N)c1cc2cccc(Cl)c2c(=O)n1-c1ccccc1 [Compound 107] | 6.00 to 7.00 | 6.00 to 7.00 | > 7.00 | > 7.00 | > 7.00 | 6.00 to 7.00 |
| C[C@H](NC(=O)c1nc(-c2cccc(S(N)(=O)=O)c2)cnc1N)c1cc2cccc(Cl)c2c(=O)n1-c1ccccc1 [Compound 108] | 5.00 to 6.00 | 5.00 to 6.00 | 6.00 to 7.00 | 6.00 to 7.00 | > 7.00 | 6.00 to 7.00 |
| C[C@H](NC(=O)c1nc(-c2cnn(C)c2)cnc1N)c1cc2cccc(Cl)c2c(=O)n1-c1ccccc1 [Compound 109] | < 5.00 | 5.00 to 6.00 | 5.00 to 6.00 | 5.00 to 6.00 | > 7.00 | 6.00 to 7.00 |
| C[C@H](NC(=O)c1nc(-c2cn[nH]c2)cnc1N)c1cc2cccc(Cl)c2c(=O)n1-c1ccccc1 [Compound 110] | 5.00 to 6.00 | 5.00 to 6.00 | 5.00 to 6.00 | 6.00 to 7.00 | > 7.00 | > 7.00 |
| C[C@H](NC(=O)c1nc(C#N)cnc1N)c1cc2cccc(Cl)c2c(=O)n1-c1ccccc1 [Compound 111] | 6.00 to 7.00 | < 5.00 | 6.00 to 7.00 | 6.00 to 7.00 | 6.00 to 7.00 | > 7.00 |
| C[C@H](NC(=O)c1nc(-c2cscn2)cnc1N)c1cc2cccc(Cl)c2c(=O)n1-c1ccccc1 [Compound 112] | < 5.00 | 5.00 to 6.00 | 5.00 to 6.00 | 6.00 to 7.00 | > 7.00 | 6.00 to 7.00 |
| C[C@H](NC(=O)c1nc(-c2csc(S(C)(=O)=O)n2)cnc1N)c1cc2cccc(Cl)c2c(=O)n1-c1ccccc1 [Compound 113] | < 5.00 | < 5.00 | 5.00 to 6.00 | 5.00 to 6.00 | 6.00 to 7.00 | 5.00 to 6.00 |
| C[C@H](NC(=O)c1c(N)nn2cccnc12)c1cc2cccc(-c3ccccc3)c2c(=O)n1-c1ccccc1 [Compound 115] | 5.00 to 6.00 | 5.00 to 6.00 | < 5.00 | 6.00 to 7.00 | > 7.00 | 6.00 to 7.00 |
| COc1cc(-c2cccc3cc([C@H](C)NC(=O)c4c(N)nn5cccnc45)n(-c4ccccc4)c(=O)c23)ccn1 [Compound 116] | 5.00 to 6.00 | 5.00 to 6.00 | 5.00 to 6.00 | 6.00 to 7.00 | > 7.00 | > 7.00 |
| C[C@H](NC(=O)c1c(N)nn2cccnc12)c1cc2cccc(-c3ccncc3)c2c(=O)n1-c1ccccc1 [Compound 117] | 5.00 to 6.00 | 5.00 to 6.00 | < 5.00 | 6.00 to 7.00 | > 7.00 | > 7.00 |
| C[C@H](NC(=O)c1c(N)nn2cccnc12)c1cc2cccc(-c3cccnc3)c2c(=O)n1-c1ccccc1 [Compound 118] | 6.00 to 7.00 | 5.00 to 6.00 | < 5.00 | 6.00 to 7.00 | > 7.00 | > 7.00 |
| COc1cncc(-c2cccc3cc([C@H](C)NC(=O)c4c(N)nn5cccnc45)n(-c4ccccc4)c(=O)c23)c1 [Compound 119] | 6.00 to 7.00 | 5.00 to 6.00 | < 5.00 | > 7.00 | > 7.00 | > 7.00 |

More lines, now with the values ahead:

| pIC50 (PI3K δ) | pIC50 (PI3K α) | pIC50 (PI3K β) | pIC50 (PI3K γ) | pIC50 (Raw264.7 p110 γ) | pIC50 (RAJI p110 δ) | SMILES |
| --- | --- | --- | --- | --- | --- | --- |
| 6.00 to 7.00 | 5.00 to 6.00 | < 5.00 | 6.00 to 7.00 | 6.00 to 7.00 | > 7.00 | C[C@H](NC(=O)c1c(N)nn2cccnc12)c1cc2cccc(-c3cncc(NS(C)(=O)=O)c3)c2c(=O)n1-c1ccccc1 [Compound 120] |
| 6.00 to 7.00 | < 5.00 | < 5.00 | > 7.00 | > 7.00 | > 7.00 | C[C@H](NC(=O)c1c(N)nn2cccnc12)c1cc2cccc(-c3ccc(=O)n(C)c3)c2c(=O)n1-c1ccccc1 [Compound 121] |
| 5.00 to 6.00 | 5.00 to 6.00 | 5.00 to 6.00 | 6.00 to 7.00 | > 7.00 | > 7.00 | Cc1cccc2cc([C@H](C)NC(=O)c3c(N)nn4cccnc34)n(-c3ccccc3)c(=O)c12 [Compound 123] |
| > 7.00 | > 7.00 | > 7.00 | > 7.00 | > 7.00 | > 7.00 | C[C@H](NC(=O)c1c(N)nn2ccc(-c3cccc(S(C)(=O)=O)c3)nc12)c1cc2cccc(Cl)c2c(=O)n1-c1ccccc1 [Compound 127] |
| 5.00 to 6.00 | 5.00 to 6.00 | 5.00 to 6.00 | 6.00 to 7.00 | > 7.00 | > 7.00 | COc1ncc(-c2cccc3cc([C@H](C)NC(=O)c4c(N)nn5cccnc45)n(-c4ccccc4)c(=O)c23)cn1 [Compound 128] |
| < 5.00 | < 5.00 | 5.00 to 6.00 | 5.00 to 6.00 | > 7.00 | 6.00 to 7.00 | C[C@H](NC(=O)c1c(N)nn2cccnc12)c1cc2cccc(O)c2c(=O)n1-c1ccccc1 [Compound 132] |
| 5.00 to 6.00 | < 5.00 | 5.00 to 6.00 | 6.00 to 7.00 | > 7.00 | 6.00 to 7.00 | C[C@H](NC(=O)c1c(N)nn2cccnc12)c1cc2ccccc2c(=O)n1-c1ccccc1 [Compound 133] |
| 6.00 to 7.00 | 5.00 to 6.00 | 6.00 to 7.00 | 6.00 to 7.00 | > 7.00 | > 7.00 | C[C@H](NC(=O)c1c(N)ncc2cccnc12)c1cc2cccc(Cl)c2c(=O)n1-c1ccccc1 [Compound 137] |
| 5.00 to 6.00 | < 5.00 | 5.00 to 6.00 | 6.00 to 7.00 | > 7.00 | > 7.00 | CC(C)Oc1cc(-c2cccc3cc([C@H](C)NC(=O)c4c(N)nn5cccnc45)n(-c4ccccc4)c(=O)c23)ccn1 [Compound 138] |
| 5.00 to 6.00 | < 5.00 | < 5.00 | 5.00 to 6.00 | > 7.00 | 6.00 to 7.00 | COc1cc(-c2cccc3cc([C@H](C)NC(=O)c4ncc(C)nc4N)n(-c4ccccc4)c(=O)c23)ccn1 [Compound 139] |
| 6.00 to 7.00 | 5.00 to 6.00 | < 5.00 | > 7.00 | > 7.00 | > 7.00 | COc1cc(-c2cccc3cc([C@H](C)NC(=O)c4c(N)ncc5cccnc45)n(-c4ccccc4)c(=O)c23)ccn1 [Compound 140] |
| 6.00 to 7.00 | 5.00 to 6.00 | > 7.00 | 6.00 to 7.00 | > 7.00 | > 7.00 | Cc1ccn2nc(N)c(C(=O)N[C@@H](C)c3cc4cccc(Cl)c4c(=O)n3-c3ccccc3)c2n1 [Compound 142] |
| 6.00 to 7.00 | 6.00 to 7.00 | 5.00 to 6.00 | > 7.00 | > 7.00 | > 7.00 | COc1cc(-c2cccc3nc([C@H](C)NC(=O)c4c(N)nn5cccnc45)n(-c4ccccc4)c(=O)c23)ccn1 [Compound 144] |
| 5.00 to 6.00 | < 5.00 | 5.00 to 6.00 | 5.00 to 6.00 | > 7.00 | > 7.00 | CC(C)Oc1cc(-c2cccc3nc([C@H](C)NC(=O)c4c(N)nn5cccnc45)n(-c4ccccc4)c(=O)c23)ccn1 [Compound 145] |
